Measured values taken from patent US20220251114A1, “AZEPINES AS HBV CAPSID ASSEMBLY MODULATORS” (Janssen Sciences Ireland Unlimited Company, priority 2019, published 2022).

System: HBV
Assay: HBV replication inhibition assay (BDNA assay) in HepG2.2.15 cells
Format: cell-based
Conditions: Hepatitis B virus, 144 h, 6 days treatment, encapsidated HBV DNA in supernatant by branched DNA QuantiGene assay
Method: HBV replication inhibition by the disclosed compounds were determined in cells infected or transfected with HBV or cells with stably integrated HBV, such as HepG2.2.15 cells (Sells et al. 1987). In this example, HepG2.2.15 cells were maintained in cell culture medium containing 10% fetal bovine serum (FBS), Geneticin, L-glutamine, penicillin and streptomycin. HepG2.2.15 cells were seeded in 96-well plates at a density of 40,000 cells/well and were treated with serially diluted compounds at a final DMSO concentration of 0.5% either alone or in combination by adding drugs in a checker box format. Cells were incubated with compounds for three days, after which medium was removed and fresh medium containing compounds was added to cells and incubated for another three days. At day 6, supernatant was removed and treated with DNase at 37° C. for 60 minutes, followed by enzyme inactivation at 75° C. for 15 minutes. Encapsidated HBV DNA was released from the virions and covalently linked HBV polymerase by incubating in lysis buffer (Affymetrix QS0010) containing 2.5 μg proteinase K at 50° C. for 40 minutes. HBV DNA was denatured by addition of 0.2 M NaOH and detected using a branched DNA (BDNA) QuantiGene assay kit according to manufacturer recommendation (Affymetrix). HBV DNA levels were also quantified using qPCR, based on amplification of encapsidated HBV DNA extraction with QuickExtraction Solution (Epicentre Biotechnologies) and amplification of HBV DNA using HBV specific PCR probes that can hybridize to HBV DNA and a fluorescently labeled probe for quantitation. In addition, cell viability of HepG2.2.15 cells incubated with test compounds alone or in combination was determined by using CellTitre-Glo reagent according to the manufacturer protocol (Promega). The mean background signal from wells containing only culture medium was subtracted from all other samples, and percent inhibition at each compound concentration was calculated by normalizing to signals from HepG2.2.15 cells treated with 0.5% DMSO using equation El.
E1: % inhibition=(DMSOave−Xi)/DMSOave×100%
where DMSOave is the mean signal calculated from the wells that were treated with DMSO control (0% inhibition control) and Xi is the signal measured from the individual wells. EC50 values, effective concentrations that achieved 50% inhibitory effect, were determined by non-linear fitting using Graphpad Prism software (San Diego, Calif.) and equation E2.
E2: Y=Ymin+(Ymax−Ymin)/(1+10(Log EC50-X)×HillSlope)
where Y represents percent inhibition values and X represents the logarithm of compound concentrations.
Selected disclosed compounds were assayed in the HBV replication assay (BDNA assay), as described above, and a representative group of these active compounds is shown in Table 3.

SMILES | EC50 [nM]
N#Cc1cc(NC(=O)N2CCc3nn4c(c3C2)OCC=C(CO)C4)ccc1F [Example 1, N-(3-Cyano-4-fluorophenyl)-4-(hydroxymethyl)-5,8,9,11-tetrahydropyrido-[4′,3′:3,4]pyrazolo[5,1-b] [1,3] oxazepine-10(2H)-carboxamide] | 18
N#Cc1cc(NC(=O)N2CCc3nn4c(c3C2)SCCC(O)C4)ccc1F (stereo not shown) [Example 2, N-(3-Cyano-4-fluorophenyl)-4-hydroxy-2,3,4,5,8,9-hexahydropyrido[4′,3′:3,4]-byrazolo[5,1-b][1,3]thiazepine-10(11H)-carboxamide] | 15
N#Cc1cc(NC(=O)N2CCc3nn4c(c3C2)SCC(O)CC4)ccc1F (stereo not shown) [Example 3, N-(3-Cyano-4-fluorophenyl)-3-hydroxy-2,3,4,5,8,9-hexahydropyrido[4′,3′:3,4]-pyrazolo[5,1-b][1,3]thiazepine-10(11H)-carboxamide] | 5
N#Cc1cc(NC(=O)N2CCc3nn4c(c3C2)[S+]([O-])CCC(O)C4)ccc1F (stereo not shown) [Example 4, N-(3-Cyano-4-fluorophenyl)-4-hydroxy-2,3,4,5,8,9-hexahydropyrido[4′,3′:3,4]-pyrazolo[5,1-b][1,3]thiazepine-10(11H)-carboxamide 1-oxide] | 834
N#Cc1cc(NC(=O)N2CCc3nn4c(c3C2)S(=O)(=O)CCC(O)C4)ccc1F (stereo not shown) [Example 5, N-(3-Cyano-4-fluorophenyl)-4-hydroxy-2,3,4,5,8,9-hexahydropyrido[4′,3′:3,4]-pyrazolo[5,1-b][1,3]thiazepine-10(11H)-carboxamide 1,1-dioxide] | 40
N#Cc1cc(NC(=O)N2CCc3nn4c(c3C2)[S+]([O-])CC(O)CC4)ccc1F (stereo not shown) [Example 6, N-(3-Cyano-4-fluorophenyl)-3-hydroxy-2,3,4,5,8,9-hexahydropyrido[4′,3′:3,4]-pyrazolo[5,1-b][1,3]thiazepine-10(11H)-carboxamide 1-oxide] | 141
N#Cc1cc(NC(=O)N2CCc3nn4c(c3C2)S(=O)(=O)CC(O)CC4)ccc1F (stereo not shown) [Example 7, N-(3-Cyano-4-fluorophenyl)-3-hydroxy-2,3,4,5,8,9-hexahydropyrido[4′,3′:3,4]-pyrazolo[5,1-b][1,3]thiazepine-10(11H)-carboxamide 1,1-dioxide] | 3.5
